The target in one data set is T1, human TLR7 (Homo sapiens, UniProt Q9NYK1).
T1 construct: host or cells: HEK293 (HEK-Blue hTLR7)
T1 sequence (Q9NYK1 27-1049): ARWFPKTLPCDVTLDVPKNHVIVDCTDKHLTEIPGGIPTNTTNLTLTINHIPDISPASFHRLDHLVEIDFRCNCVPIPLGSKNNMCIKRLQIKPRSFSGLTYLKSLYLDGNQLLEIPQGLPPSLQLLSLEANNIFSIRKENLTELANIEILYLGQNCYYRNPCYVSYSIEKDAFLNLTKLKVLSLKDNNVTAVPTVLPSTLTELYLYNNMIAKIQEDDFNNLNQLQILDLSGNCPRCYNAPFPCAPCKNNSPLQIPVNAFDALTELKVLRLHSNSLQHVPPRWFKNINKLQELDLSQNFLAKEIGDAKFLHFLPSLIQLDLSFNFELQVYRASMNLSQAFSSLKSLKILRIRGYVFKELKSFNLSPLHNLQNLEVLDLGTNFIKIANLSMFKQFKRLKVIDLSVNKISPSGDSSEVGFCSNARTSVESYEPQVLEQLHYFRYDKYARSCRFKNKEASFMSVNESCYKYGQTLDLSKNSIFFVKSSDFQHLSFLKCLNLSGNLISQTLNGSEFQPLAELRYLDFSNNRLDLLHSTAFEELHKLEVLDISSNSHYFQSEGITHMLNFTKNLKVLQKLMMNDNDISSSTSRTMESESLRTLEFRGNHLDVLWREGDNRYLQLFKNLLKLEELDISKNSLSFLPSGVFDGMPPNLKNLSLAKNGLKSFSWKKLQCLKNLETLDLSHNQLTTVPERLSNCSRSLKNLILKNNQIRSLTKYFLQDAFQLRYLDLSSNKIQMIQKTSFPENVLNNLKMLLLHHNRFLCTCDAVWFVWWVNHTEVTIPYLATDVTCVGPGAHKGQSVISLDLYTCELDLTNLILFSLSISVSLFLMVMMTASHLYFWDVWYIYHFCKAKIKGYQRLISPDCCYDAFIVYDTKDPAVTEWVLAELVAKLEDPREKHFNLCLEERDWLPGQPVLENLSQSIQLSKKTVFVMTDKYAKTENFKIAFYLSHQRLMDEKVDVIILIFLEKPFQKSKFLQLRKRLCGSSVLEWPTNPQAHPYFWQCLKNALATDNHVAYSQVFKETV
The data set is described as follows: HEK293-Blue-hTLR-7 cells assay (SEAP reporter, R848 stimulation). The data set is classed as cell-based. The conditions noted are these: HEK293-Blue-hTLR7 cells, R848, 20 hrs; read-out: HEK/hTLR7 IC50. The text has this: HEK293-Blue-hTLR-7 Cells Assay:
(§1) A stable HEK293-Blue-hTLR-7 cell line was purchased from InvivoGen (Cat. #: hkb-ht1r7, San Diego, Calif., USA). These cells were originally designed for studying the stimulation of human TLR7 by monitoring the activation of NF-κB. A SEAP (secreted embryonic alkaline phosphatase) reporter gene was placed under the control of the IFN-β minimal promoter fused to five NF-κB and AP-1-binding sites. The SEAP was induced by activating NF-κB and AP-1 via stimulating HEK-Blue hTLR7 cells with TLR7 ligands. Therefore the reporter expression was declined by TLR7 antagonist under the stimulation of a ligand, such as R848 (Resiquimod), for incubation of 20 hrs. The cell culture supernatant SEAP reporter activity was determined using QUANTI-Blue™ kit (Cat. #: rep-qb1, Invivogen, San Diego, Ca, USA) at a wavelength of 640 nm, a detection medium that turns purple or blue in the presence of alkaline phosphatase.
HEK293-Blue-hTLR7 cells were incubated at a density of […] cells/mL in a volume of 170 μL in a 96-well plate in Dulbecco's Modified Eagle's medium (DMEM) containing 4.5 g/L glucose, 50 U/mL penicillin, […], […], 2 mM L-glutamine, 10% (v/v) heat-inactivated fetal bovine serum with addition of 20 μL test compound in a serial dilution in the presence of final DMSO at 1% and 10 μL of 20 uM R848 in above DMEM, perform incubation under 37° C. in a CO2 incubator for 20 hrs. Then 20 μL of the supernatant from each well was incubated with 180 μL Quanti-blue substrate solution at 37° C. for 2 hrs and the absorbance was read at 620˜655 nm using a spectrophotometer. The signaling pathway that TLR7 activation leads to downstream NF-κB activation has been widely accepted, and therefore similar reporter assay was modified for evaluating TLR7 antagonist.

The target in data set [1] is T2, hTLR9 (Homo sapiens, UniProt Q9NR96).
T2 sequence (Q9NR96 26-1032): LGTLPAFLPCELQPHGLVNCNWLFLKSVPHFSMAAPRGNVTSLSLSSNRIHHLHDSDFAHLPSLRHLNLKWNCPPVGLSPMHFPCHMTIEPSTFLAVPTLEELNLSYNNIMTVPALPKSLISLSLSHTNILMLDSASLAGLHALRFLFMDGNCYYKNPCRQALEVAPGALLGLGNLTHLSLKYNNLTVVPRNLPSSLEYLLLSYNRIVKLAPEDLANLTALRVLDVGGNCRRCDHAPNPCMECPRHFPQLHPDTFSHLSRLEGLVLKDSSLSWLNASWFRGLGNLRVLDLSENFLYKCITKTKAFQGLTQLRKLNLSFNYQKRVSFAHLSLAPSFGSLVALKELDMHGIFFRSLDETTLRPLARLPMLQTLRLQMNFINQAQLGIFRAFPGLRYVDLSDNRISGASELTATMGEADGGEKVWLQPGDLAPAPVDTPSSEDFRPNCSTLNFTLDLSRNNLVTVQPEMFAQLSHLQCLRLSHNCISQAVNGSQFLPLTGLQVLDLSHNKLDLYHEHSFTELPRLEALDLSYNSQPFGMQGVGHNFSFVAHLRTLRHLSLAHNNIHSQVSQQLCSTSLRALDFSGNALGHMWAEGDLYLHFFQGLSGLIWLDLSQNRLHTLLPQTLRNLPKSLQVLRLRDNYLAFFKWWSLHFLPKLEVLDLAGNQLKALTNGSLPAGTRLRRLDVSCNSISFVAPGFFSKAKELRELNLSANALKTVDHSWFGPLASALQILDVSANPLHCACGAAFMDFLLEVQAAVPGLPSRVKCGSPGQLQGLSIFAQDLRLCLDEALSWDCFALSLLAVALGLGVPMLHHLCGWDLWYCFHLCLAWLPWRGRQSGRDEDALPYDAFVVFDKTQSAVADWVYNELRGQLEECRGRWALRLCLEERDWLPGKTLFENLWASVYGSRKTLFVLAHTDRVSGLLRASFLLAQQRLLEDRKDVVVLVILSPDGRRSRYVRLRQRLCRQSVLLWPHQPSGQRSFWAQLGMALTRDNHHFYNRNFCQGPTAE
The data set is described as follows: HEK293-Blue-hTLR-9 cells assay (SEAP reporter, ODN2006 stimulation). The following applies: HEK293-Blue-hTLR9 cells, ODN2006, 20 hrs; read-out: HEK/hTLR9 IC50. The arrangement: host or cells: HEK293 (HEK-Blue hTLR9). It counts as cell-based.
From the text: HEK293-Blue-hTLR-9 Cells Assay:
as §1, with “HEK293-Blue-hTLR-9” for “HEK293-Blue-hTLR-7”, “hkb-htlr9,” for “hkb-ht1r7,”, “TLR9” for “TLR7”, “hTLR9” for “hTLR7”, “ODN2006 (Cat. #: tlrl-2006-1, Invivogen, San Diego, Calif., USA),” for “R848 (Resiquimod),”, “Calif.,” for “Ca,”
HEK293-Blue-hTLR9 cells were incubated at a density of 250,000˜450,000 cells/mL in a volume of 170 μL in a 96-well plate in Dulbecco's Modified Eagle's medium (DMEM) containing 4.5 g/L glucose, 50 U/mL penicillin, […], 2 mM L-glutamine, 10% (v/v) heat-inactivated fetal bovine serum with addition of 20 μL test compound in a serial dilution in the presence of final DMSO at 1% and 10 μL of 20 uM ODN2006 in above DMEM, perform incubation under 37° C. in a CO2 incubator for 20 hrs. Then 20 μL of the supernatant from each well was incubated with 180 μL Quanti-blue substrate solution at 37° C. for 2 h and the absorbance was read at 620-655 nm using a spectrophotometer. The signaling pathway that TLR9 activation leads to downstream NF-κB activation has been widely accepted, and therefore similar reporter assay was modified for evaluating TLR9 antagonist.

The target in data set [2] is T2, hTLR9. The arrangement: host or cells: HEK. The conditions noted are these: data disclosed in US20150105370; read-out: HEK/hTLR9 IC50; cited from earlier work.
Another data set has as its target T3, hERG channel (Homo sapiens, UniProt Q12809).
T3 construct: expressed in transfected cells; host or cells: CHO (Chinese hamster ovary)
In words: hERG channel inhibition assay (patch-clamp, CHOhERG cells). The data set is classed as cell-based. The conditions noted are these: for safety window (hERG IC20/TLR7/8/9 IC50) compared to the compounds of this invention: result in words; for hERG IC20/TLR7 IC50 / hERG IC20/TLR9 IC50 / hERG IC20/TLR8 IC50: safety ratio. The procedure:
hERG Channel Inhibition Assay:
The hERG K^+ channels were cloned in humans and stably expressed in a CHO (Chinese hamster ovary) cell line. CHOhERG cells were used for patch-clamp (voltage-clamp, whole-cell) experiments. Cells were stimulated by a voltage pattern to activate hERG channels and conduct IKhERG currents (rapid delayed outward rectifier potassium current of the hERG channel). After the cells were stabilized for a few minutes, the amplitude and kinetics of IKhERG were recorded at a stimulation frequency of 0.1 Hz, (6 bpm). Thereafter, the test compound was added to the preparation at increasing concentrations. For each concentration, an attempt was made to reach a steady-state effect, usually, this was achieved within 3-10 min at which time the next highest concentration was applied. The amplitude and kinetics of IKhERG are recorded in each concentration of the drug which were compared to the control values (taken as 100%). (references: Redfern W S, Carlsson L, Davis A S, Lynch W G, MacKenzie I, Palethorpe S, Siegl P K, Strang I, Sullivan A T, Wallis R, Camm A J, Hammond T G. 2003; Relationships between preclinical cardiac electrophysiology, clinical QT interval prolongation and torsade de pointes for a broad range of drugs: evidence for a provisional safety margin in drug development. Cardiovasc. Res. 58:32-45, Sanguinetti M C, Tristani-Firouzi M. 2006; hERG potassium channels and cardiac arrhythmia. Nature 440:463-469, Webster R, Leishman D, Walker D. 2002; Towards a drug concentration effect relationship for QT prolongation and torsades de pointes. Curr. Opin. Drug Discov. Devel. 5:116-26).
Background: hERG is a cardiac potassium channel; its block is linked to QT prolongation.

Consider 7 molecules from patent US20210395239A1 (Hoffmann-La Roche Inc., priority 2018, published 2021).

pIC50: −log10 of the molar value. Where two headings read alike, the source gives them in different places.

T3 sequence (Q12809 whole entry): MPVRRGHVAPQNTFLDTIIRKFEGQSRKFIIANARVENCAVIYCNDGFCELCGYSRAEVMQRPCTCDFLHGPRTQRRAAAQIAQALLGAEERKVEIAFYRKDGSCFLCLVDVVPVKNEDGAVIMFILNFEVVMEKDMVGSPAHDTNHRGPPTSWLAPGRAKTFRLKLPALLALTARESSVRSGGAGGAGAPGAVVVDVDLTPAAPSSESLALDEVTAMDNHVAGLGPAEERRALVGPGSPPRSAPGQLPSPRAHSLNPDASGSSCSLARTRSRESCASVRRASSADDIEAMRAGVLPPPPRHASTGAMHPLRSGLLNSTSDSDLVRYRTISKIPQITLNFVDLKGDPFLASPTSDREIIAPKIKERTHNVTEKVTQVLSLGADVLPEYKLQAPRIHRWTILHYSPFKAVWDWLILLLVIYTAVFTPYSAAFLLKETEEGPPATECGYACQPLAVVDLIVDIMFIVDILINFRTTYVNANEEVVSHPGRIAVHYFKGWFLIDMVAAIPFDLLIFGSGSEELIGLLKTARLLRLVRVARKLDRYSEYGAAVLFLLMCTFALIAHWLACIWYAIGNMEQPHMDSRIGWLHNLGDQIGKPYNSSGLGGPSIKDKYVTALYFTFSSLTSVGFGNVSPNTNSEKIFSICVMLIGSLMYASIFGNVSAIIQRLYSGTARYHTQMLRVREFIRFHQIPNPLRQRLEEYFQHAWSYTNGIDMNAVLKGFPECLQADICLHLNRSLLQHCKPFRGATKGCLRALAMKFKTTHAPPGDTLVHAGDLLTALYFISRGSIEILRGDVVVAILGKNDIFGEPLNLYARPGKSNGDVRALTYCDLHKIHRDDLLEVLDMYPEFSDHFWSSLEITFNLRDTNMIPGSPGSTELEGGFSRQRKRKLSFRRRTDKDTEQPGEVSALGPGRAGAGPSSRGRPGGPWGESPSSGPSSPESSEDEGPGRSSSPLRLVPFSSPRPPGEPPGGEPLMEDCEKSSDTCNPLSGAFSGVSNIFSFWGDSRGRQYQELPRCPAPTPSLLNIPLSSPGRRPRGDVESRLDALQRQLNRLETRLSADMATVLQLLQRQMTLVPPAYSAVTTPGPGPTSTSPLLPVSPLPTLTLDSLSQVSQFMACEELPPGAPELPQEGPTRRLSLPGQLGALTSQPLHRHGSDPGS

Turning to `[2H]c1nc2c(C#N)ccc(N3C[C@H](CN4CCN(c5nc(C)cc(N6C[C@H](OC)[C@@H](N)C6)n5)CC4)O[C@H](C)C3)c2nc1[2H]` [Example 105, 8-[(2S,6R)-2-[[4-[4-[(3S,4S)-3-amino-4-methoxy-pyrrolidin-1-yl]-6-methyl-pyrimidin-2-yl]piperazin-1-yl]methyl]-6-methyl-morpholin-4-yl]-2,3-dideuterio-quinoxaline-5-carbonitrile], the values for the pIC50 on human TLR7 and at hTLR9 [1] were 7.89 and 7.16, respectively.
With `Cc1nn(C)cc1S(=O)(=O)NC1CCN(C[C@H]2CN(c3ccc(C#N)c4ncccc34)C[C@@H](C)O2)CC1` [ER-894160], the pIC50 on hTLR9 [2] is < 5.00.
For `C[C@@H]1CN(c2ccc(C#N)c3ncccc23)C[C@H](CN2CC[C@@H](NC(=O)c3ccccc3)C2)O1` [ER-894544], at hTLR9 [2], the pIC50 was < 5.21.
For the molecule `C[C@@H]1CN(c2ccc(C#N)c3ncccc23)C[C@H](CN2CCN(c3ccccn3)CC2)O1` [ER-888285, reference compound], on hTLR9 [2], the pIC50 was < 5.70. Besides, at hERG channel, the “safety window (hERG IC20/TLR7/8/9 IC50) compared to the compounds of this invention” value is on record as “much narrower safety window”, the “hERG IC20/TLR7 IC50” value is 8.4 and the “hERG IC20/TLR9 IC50” value is recorded as 0.5.
Consider `C[C@@H]1CN(c2ccc(C#N)c3ncccc23)C[C@H](CN2CCN(c3ccc(Cl)cc3)CC2)O1` [Example R2, 5-[(2S,6R)-2-[[4-(4-chlorophenyl)piperazin-1-yl]methyl]-6-methyl-morpholin-4-yl]quinoline-8-carbonitrile, reference compound], for which, on hERG channel, the “safety window (hERG IC20/TLR7/8/9 IC50) compared to the compounds of this invention” value was “much narrower safety window”, the “hERG IC20/TLR7 IC50” value was determined as 1.3, the “hERG IC20/TLR8 IC50” value came to 0.8 and the “hERG IC20/TLR9 IC50” value is given as 0.04.
On the same counts, the results for `COc1ccc(N2CCN(C[C@H]3CN(c4ccc(C#N)c5ncccc45)C[C@@H](C)O3)CC2)cc1` [Example R1, 5-[(2S,6R)-2-[[4-(4-methoxyphenyl)piperazin-1-yl]methyl]-6-methyl-morpholin-4-yl]quinoline-8-carbonitrile, reference compound] are “much narrower safety window”, 9.3, 6.2 and 0.1.
As to `C[C@@H]1CN(c2ccc(C#N)c3ncccc23)C[C@H](CN2CC(NS(=O)(=O)c3ccc(F)cc3)C2)O1` [ER-894155], the pIC50 on hTLR9 [2] was < 5.00.
